Source: publication PMC9297976 (Journal of Applied Toxicology, 2021)

Legend:
medaka Esr1 (mEsr1) [1] = molecular target: T1, medaka Esr1 (mEsr1) (Oryzias latipes, UniProt P50241); assay: cell-based; set-up: species or system Japanese medaka (Oryzias latipes)
T1 sequence (P50241 1-620): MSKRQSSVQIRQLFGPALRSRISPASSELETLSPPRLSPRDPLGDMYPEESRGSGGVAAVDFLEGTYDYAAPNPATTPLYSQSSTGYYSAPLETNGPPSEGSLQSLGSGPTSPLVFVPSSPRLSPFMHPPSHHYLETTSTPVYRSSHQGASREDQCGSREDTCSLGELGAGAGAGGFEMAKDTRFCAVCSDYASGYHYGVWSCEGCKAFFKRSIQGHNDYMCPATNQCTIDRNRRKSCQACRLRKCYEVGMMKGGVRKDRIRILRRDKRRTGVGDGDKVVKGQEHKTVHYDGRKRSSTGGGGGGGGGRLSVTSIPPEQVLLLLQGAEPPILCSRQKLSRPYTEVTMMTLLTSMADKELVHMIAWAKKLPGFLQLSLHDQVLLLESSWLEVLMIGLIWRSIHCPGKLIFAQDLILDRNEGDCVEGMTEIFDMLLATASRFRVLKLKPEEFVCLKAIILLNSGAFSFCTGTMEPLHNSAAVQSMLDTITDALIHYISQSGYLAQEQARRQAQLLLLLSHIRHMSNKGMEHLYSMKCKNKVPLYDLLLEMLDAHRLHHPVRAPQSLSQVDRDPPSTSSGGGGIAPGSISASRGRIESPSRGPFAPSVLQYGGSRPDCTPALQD

medaka ARβ (mArβ) [2] = molecular target: T2, medaka ARβ (mArβ) (Oryzias latipes, UniProt D1MV73); assay: Medaka ARβ reporter gene assay, agonist assay; format: cell-based, Japanese medaka (Oryzias latipes); settings: MAC = 1.0 × 10^−4 M
T2 sequence (D1MV73 1-744): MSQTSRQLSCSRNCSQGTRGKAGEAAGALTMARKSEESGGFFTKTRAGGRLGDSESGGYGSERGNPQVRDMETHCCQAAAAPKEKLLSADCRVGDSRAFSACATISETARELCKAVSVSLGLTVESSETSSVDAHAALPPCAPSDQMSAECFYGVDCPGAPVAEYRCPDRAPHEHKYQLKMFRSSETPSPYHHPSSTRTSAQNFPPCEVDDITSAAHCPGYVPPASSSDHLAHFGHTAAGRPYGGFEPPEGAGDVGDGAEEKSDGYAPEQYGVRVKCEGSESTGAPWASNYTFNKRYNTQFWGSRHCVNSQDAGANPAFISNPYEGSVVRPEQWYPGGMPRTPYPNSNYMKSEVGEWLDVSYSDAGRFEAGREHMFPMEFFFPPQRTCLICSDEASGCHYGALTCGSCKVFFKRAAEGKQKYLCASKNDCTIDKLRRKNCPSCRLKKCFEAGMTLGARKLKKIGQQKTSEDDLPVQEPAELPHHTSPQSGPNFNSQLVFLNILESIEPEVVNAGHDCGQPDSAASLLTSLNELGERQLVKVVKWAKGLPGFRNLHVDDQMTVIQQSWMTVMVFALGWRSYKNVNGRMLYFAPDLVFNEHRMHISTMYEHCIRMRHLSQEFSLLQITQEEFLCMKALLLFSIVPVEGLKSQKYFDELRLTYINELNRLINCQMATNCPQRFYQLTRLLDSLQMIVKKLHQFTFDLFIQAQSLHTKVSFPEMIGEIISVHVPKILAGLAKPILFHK

medaka ARβ (mArβ) [3] = molecular target: T2, medaka ARβ (mArβ); assay: Medaka ARβ reporter gene assay, antagonist assay; format: cell-based, Japanese medaka (Oryzias latipes); settings: 11‐KT spiked at 50 nM (D); MAC = 1.0 × 10^−4 M
medaka Esr1 (mEsr1) [4] = molecular target: T1, medaka Esr1 (mEsr1); assay: Medaka Esr1 reporter gene assay, antagonist assay; format: cell-based, Japanese medaka (Oryzias latipes); settings: E2 spiked at 1.0 nM (B); MAC = 1.0 × 10^−4 M
[5] = test system: Japanese medaka (Oryzias latipes); assay: Fish Short‐Term Reproduction Assay; format: in vivo; settings: for GSI Female / GSI Male / HSI Female / HSI Male / Length Female / Length Male / Weight Female / Weight Male: completion of exposure
[6] = 9.75 mg/L measured, 21 d, sig. ↓ vs control
[7] = measured concentration 0.357 mg/L
[8] = measured concentration 1.90 mg/L
[9] = measured concentration 9.75 mg/L

SMILES: COC(=O)c1ccc(O)cc1 [MPB, 4‐Hydroxybenzoate methyl]
- EC50 (medaka Esr1 (mEsr1) [1]): 70 µM
- In vitro positive: Esr (medaka Esr1 (mEsr1) [1]; mode of action in which EC50 or PC10 was obtained in RGA): Esr
- Agonistic activity (medaka ARβ (mArβ) [2]): NE (MAC = 1.0 × 10^−4 M)
- Antagonistic activity (medaka ARβ (mArβ) [3]): NE (MAC = 1.0 × 10^−4 M)^(D)
- Antagonistic activity (medaka Esr1 (mEsr1) [4]): NE (MAC = 1.0 × 10^−4 M)^(B)
- Fertility rate ([5]; 0.357 mg/L measured, 21 d): 93 ± 2.9%
- Hepatic VTG, female ([5]; 0.357 mg/L measured, 21 d): 3,450 ± 724 ng/mg‐liver
- Hepatic VTG, male ([5]; 0.357 mg/L measured, 21 d): 1.7 ± 1.2 ng/mg‐liver
- Mortality ([5]; 0.357 mg/L measured, 21 d): 0.0%
- Mortality, number of dead fish ([5]; 0.357 mg/L measured, 21 d): 0
- Number of fertilized eggs (per female per day) ([5]; 0.357 mg/L measured, 21 d): 27 ± 3.5
- Number of total eggs (per female per day) ([5]; 0.357 mg/L measured, 21 d): 29 ± 3.3
- SSC female (joint plates with papillary processes) ([5]; 0.357 mg/L measured, 21 d): 0 ± 0
- Fertility rate ([5]; 1.90 mg/L measured, 21 d): 88 ± 7.7%
- Hepatic VTG, female ([5]; 1.90 mg/L measured, 21 d): 3,890 ± 992 ng/mg‐liver
- Mortality ([5]; 1.90 mg/L measured, 21 d): 0.0%
- Mortality, number of dead fish ([5]; 1.90 mg/L measured, 21 d): 0
- Number of fertilized eggs (per female per day) ([5]; 1.90 mg/L measured, 21 d): 24 ± 3.0
- Number of total eggs (per female per day) ([5]; 1.90 mg/L measured, 21 d): 28 ± 3.3
- SSC female (joint plates with papillary processes) ([5]; 1.90 mg/L measured, 21 d): 0 ± 0
- SSC male (joint plates with papillary processes) ([5]; 1.90 mg/L measured, 21 d): 99 ± 12
- Hepatic VTG, male ([5]; 1.90 mg/L measured, 21 d, sig. ↑ vs control): 153 ± 113 ng/mg‐liver
- Hepatic VTG, female ([5]; 9.75 mg/L measured, 21 d): 3,930 ± 963 ng/mg‐liver
- Mortality ([5]; 9.75 mg/L measured, 21 d): 13%
- Mortality, number of dead fish ([5]; 9.75 mg/L measured, 21 d): 3
- SSC female (joint plates with papillary processes) ([5]; 9.75 mg/L measured, 21 d): 0 ± 0
- SSC male (joint plates with papillary processes) ([5]; 9.75 mg/L measured, 21 d): 93 ± 15
- Hepatic VTG, male ([5]; 9.75 mg/L measured, 21 d, sig. ↑ vs control): 2,640 ± 1720 ng/mg‐liver
- Fertility rate [5, 6]: 78 ± 4.8%
- Number of fertilized eggs (per female per day) [5, 6]: 16 ± 2.3
- Number of total eggs (per female per day) [5, 6]: 20 ± 2.2
- Fecundity, number of total eggs (in words) ([5]; 21 d): statistically significant decrease
- LOEC, elevated hepatic VTG in males ([5]; 21 d): 1.90 mg/L
- Daily fecundity on the first day ([5]; Figure 3C): less than 10 eggs/female
- LOECREPRO ([5]; LOEC on reproduction (fecundity and/or fertility)): 9,750 μg/L
- minimal effective concentration ([5]; Oryzias latipes, 504 h, read-out: LOECmVTG): 1.9 µg/mL
- LOECREPRO (reduction in fecundity or fertility) ([5]; concentrations without overt toxicity): 9,750 μg/L
- LOECTOX ([5]; lowest observed effect concentration on mortality): ND (>9,750) μg/L
- GSI Female [5, 7]: 11.0 ± 1.2%
- GSI Male [5, 7]: 0.74 ± 0.18%
- HSI Female [5, 7]: 4.4 ± 0.44%
- HSI Male [5, 7]: 2.1 ± 0.16%
- Length Female [5, 7]: 37.0 ± 1.3 mm
- Length Male [5, 7]: 36.0 ± 0.5 mm
- Weight Female [5, 7]: 589 ± 39 mg
- Weight Male [5, 7]: 514 ± 28 mg
- GSI Female [5, 8]: 11.0 ± 0.9%
- GSI Male [5, 8]: 0.81 ± 0.06%
- HSI Female [5, 8]: 4.7 ± 0.59%
- HSI Male [5, 8]: 2.4 ± 0.21%
- Length Female [5, 8]: 36.2 ± 1.2 mm
- Length Male [5, 8]: 36.4 ± 1.3 mm
- Weight Female [5, 8]: 574 ± 27 mg
- Weight Male [5, 8]: 530 ± 47 mg
- GSI Female [5, 9]: 9.8 ± 0.9%
- GSI Male [5, 9]: 0.69 ± 0.15%
- HSI Female [5, 9]: 5.4 ± 0.38%
- HSI Male [5, 9]: 2.3 ± 0.60%
- Length Female [5, 9]: 36.6 ± 1.4 mm
- Length Male [5, 9]: 36.2 ± 1.1 mm
- Weight Female [5, 9]: 603 ± 47 mg
- Weight Male [5, 9]: 504 ± 62 mg
